Source: patent EP2065386A1, “CGRP antagonists” (Boehringer Ingelheim Pharma GmbH & Co. KG, priority 2007, dated 2009)

Target: T1, humanen CGRP-Rezeptor (Homo sapiens, UniProt O60894+Q16602)
T1 construct: endogenous in cells; host or cells: SK-N-MC cells (membrane homogenate)
Test: Binding studies with SK-N-MC cell membranes, displacement of 125I-Iodotyrosyl-CGRP
Conditions: SK-N-MC membrane homogenate, 50 pM 125I-Iodotyrosyl-CGRP, 180 min, room temperature
Text: Zum Nachweis der Affinität der voranstehend genannten Verbindungen zu humanen CGRP-Rezeptoren und ihrer antagonistischen Eigenschaften wurden die folgenden Versuche durchgeführt: • A. Bindungsstudien mit (den humanen CGRP-Rezeptor exprimierenden) SK-N-MC-Zellen SK-N-MC-Zellen werden in "Dulbecco's modified Eagle Medium" kultiviert. Das Medium konfluenter Kulturen wird entfernt. Die Zellen werden zweimal mit PBS-Puffer (Gibco 041-04190 M) gewaschen, durch Zugabe von PBS-Puffer, versetzt mit 0.02% EDTA, abgelöst und durch Zentrifugation isoliert. Nach Resuspension in 20 ml "Balanced Salts Solution" [BSS (in mM): NaCl 120, KCl 5.4, NaHCO3 16.2, MgSO4 0.8, NaHPO4 1.0, CaCl2 1.8, D-Glucose 5.5, HEPES 30, pH 7.40] werden die Zellen zweimal bei 100 x g zentrifugiert und in BSS resuspendiert. Nach Bestimmung der Zellzahl werden die Zellen mit Hilfe eines Ultra-Turrax homogenisiert und für 10 Minuten bei 3000 x g zentrifugiert. Der Überstand wird verworfen und das Pellet in Tris-Puffer (10 mM Tris, 50 mM NaCl, 5 mM MgCl2, 1 mM EDTA, pH 7.40), angereichert mit 1% Rinderserum-Albumin und 0.1% Bacitracin, rezentrifugiert und resuspendiert (1 ml / 1000000 Zellen). Das Homogenat wird bei -80°C eingefroren. Die Membranpräparationen sind bei diesen Bedingungen für mehr als 6 Wochen stabil. Nach Auftauen wird das Homogenat 1:10 mit Assay-Puffer (50 mM Tris, 150 mM NaCl, 5 mM MgCl2, 1 mM EDTA, pH 7.40) verdünnt und 30 Sekunden lang mit einem Ultra-Turrax homogenisiert. 230 µl des Homogenats werden für 180 Minuten bei Raumtemperatur mit 50 pM ^125I-Iodotyrosyl-Calcitonin-Gene-Related Peptide (Amersham) und ansteigenden Konzentrationen der Testsubstanzen in einem Gesamtvolumen von 250 µl inkubiert. Die Inkubation wird durch rasche Filtration durch mit Polyethylenimin (0.1%) behandelte GF/B-Glasfaserfilter mittels eines Zellharvesters beendet. Die an Protein gebundene Radioaktivität wird mit Hilfe eines Gammacounters bestimmt. Als nichtspezifische Bindung wird die gebundene Radioaktivität nach Gegenwart von 1 µM humanem CGRP-alpha während der Inkubation definiert. […]

T1 sequence (Q16602 23-461): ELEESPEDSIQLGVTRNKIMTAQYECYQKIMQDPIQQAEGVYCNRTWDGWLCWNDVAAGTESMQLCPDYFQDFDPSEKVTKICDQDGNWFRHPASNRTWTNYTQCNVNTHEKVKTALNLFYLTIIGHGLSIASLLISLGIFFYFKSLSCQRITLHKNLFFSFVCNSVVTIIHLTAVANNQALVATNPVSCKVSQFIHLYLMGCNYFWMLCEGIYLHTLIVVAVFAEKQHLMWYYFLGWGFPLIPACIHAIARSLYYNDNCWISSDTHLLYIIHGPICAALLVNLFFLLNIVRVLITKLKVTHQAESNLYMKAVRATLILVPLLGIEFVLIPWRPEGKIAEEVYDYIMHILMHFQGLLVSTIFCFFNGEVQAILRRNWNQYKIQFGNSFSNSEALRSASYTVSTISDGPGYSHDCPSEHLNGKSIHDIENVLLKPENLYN
T1 sequence (O60894 27-148): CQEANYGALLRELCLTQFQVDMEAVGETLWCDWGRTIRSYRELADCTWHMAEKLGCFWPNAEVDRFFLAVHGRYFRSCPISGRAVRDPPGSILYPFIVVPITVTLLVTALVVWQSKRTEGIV

Ki [µM] | SMILES
0.081 | Cn1cc(C(=O)c2cc(N3CCC4(CC3)NC(=O)Nc3ccccc34)ncn2)c2ccccc21 [(1), 1-(6-(1-Methyl-1H-indol-3-carbonyl)pyrimidin-4-yl)-1'H-spiro[piperidin-4,4'-chinazolin]-2'(3'H)-on]
0.204 | Cn1cc(C(=O)c2cc(N3CCC4(CC3)OC(=O)Nc3ccccc34)ncn2)c2ccccc21 [(3), 1'-(6-(1-Methyl-1H-indol-3-carbonyl)pyrimidin-4-yl)spiro[benzo[d][1,3]oxazin-4,4'-piperidin]-2(1H)-on]
0.089 | Cn1cc(C(=O)c2cc(Nc3ccc4c(c3)CC3(C4)C(=O)Nc4ncccc43)ncn2)c2ccccc21 (stereo not drawn) [(2), 5-(6-(1-Methyl-1H-indol-3-carbonyl)pyrimidin-4-ylamino)-1,3-dihydrospiro[inden-2,3'-pyrrolo[2,3-b]pyridin]-2'(1'H)-on]
